The target of the assay is full-length spike Omicron BA2 variant (Severe acute respiratory syndrome coronavirus 2, UniProt P0DTC2, A27S/A892P/A899P/A942P/D405N/D614G/D796Y/DEL24-26/E484A/F817P/G142D/G339D/H655Y/K417N/K986P/N440K/N501Y/N679K/N764K/N969K/P681H/Q493R/Q498R/Q954H/R408S/R683A/R685A/S371F/S373P/S375F/S477N/T19I/T376A/T478K/V213G/V987P/Y505H). It is filed as binding, SARS-CoV-2.

Structures are written as SMILES. Numbered stars: 1 amine (or outer) side, 2 acyl side, 3 side chain; on linkers, the order of the positions; unused ones are H or OH. Bridge positions count the residues as written; N and C are the ends. Square brackets hold non-standard residues; d marks the D form. Peptide text beside a SMILES is read from it. X1 = O=S(=O)(F)Oc1cc(C[*:1])cc(C[*:2])c1; Pra = C#CC[C@H](N)C(=O)O

`C#CC[C@H](N)C(=O)N[C@@H](CCC(N)=O)C(=O)N[C@H]1CSCc2cc(cc(OS(=O)(=O)F)c2)CSC[C@@H](C(=O)NCC(N)=O)NC(=O)[C@H](CC(C)C)NC(=O)[C@H](C(C)C)NC(=O)[C@H](Cc2ccc(O)cc2)NC(=O)[C@H](CC(C)C)NC(=O)[C@H](CC(=O)O)NC(=O)[C@H](CCC(N)=O)NC(=O)[C@H](C(C)C)NC1=O` [CP_SW3A] (H-[Pra]QCVQDLYVLCG-NH2; linker 3-11 via X1): the “spike labeling” value is “highest gel labeling intensity”.

Consider `C#CC[C@H](NC(=O)[C@H](CCC(N)=O)NC(=O)[C@@H]1CSCc2cc(cc(OS(=O)(=O)F)c2)CSC[C@H](NC(=O)CN)C(=O)N[C@@H](CC(C)C)C(=O)N[C@@H](C(C)C)C(=O)N[C@@H](Cc2ccc(O)cc2)C(=O)N[C@@H](CC(C)C)C(=O)N[C@@H](CC(=O)O)C(=O)N[C@@H](CCC(N)=O)C(=O)N[C@@H](C(C)C)C(=O)N1)C(N)=O` [CP_SW3A_S1] (H-GCLVYLDQVCQ[Pra]-NH2; linker 2-10 via X1), for which the “spike labeling” value is “dramatically reduced labeling”.

With `C#CC[C@H](N)C(=O)N[C@@H](CCC(N)=O)C(=O)N[C@H]1CSCc2cc(cc(OS(=O)(=O)F)c2)CSC[C@@H](C(=O)NCC(N)=O)NC(=O)[C@H](C(C)C)NC(=O)[C@H](CCC(N)=O)NC(=O)[C@H](CC(=O)O)NC(=O)[C@H](CC(C)C)NC(=O)[C@H](Cc2ccc(O)cc2)NC(=O)[C@H](C(C)C)NC(=O)[C@H](CC(C)C)NC1=O` [CP_SW3A_S2] (H-[Pra]QCLVYLDQVCG-NH2; linker 3-11 via X1), the “spike labeling” value is “dramatically reduced labeling”.
